The nature of data set [1]: Other analytes: transdermal collection levels versus serum levels.
Data set [2] can be described thus: Serum, transdermal and saliva samples from sheep before, during and after exercise. As to conditions: for Saliva: 20-min saliva lag; for Exudate: transdermal. Here is the method:
(§1) Sodium lauryl sulfate (40%) and either a commercial ultrasound conductive gel (Aquasonic, Parker Lab., NJ 07004, USA) or a 10% ethanol gel (the two gels were alternated in use) are employed. These gels are designated SLS-UG and SLS-EG respectively herein. Collected SLS-UG and SLS-EG are assayed as for blood. Saliva was divided into two samples. The first sample is stored at −20° C. and assayed as for blood. The second sample is assayed at the time of experimentation using the apparatus and immunosensors described above.
(§2) Student t tests, ANOVA or Wilcoxon test for paired samples are made as appropriate. Statistical significance is taken at P≦0.05 level. For analysis across the exercise stress, data is grouped into pre, during and post exercise values as actual sample times relative to the exercise for transdermal and blood obtained values. For pre, during and post exercise grouping of saliva samples, a 20-min lag was allowed relative to blood and transdermal values in sheep and a 30-min lag in human subjects.
In the remaining 10 sheep, experimentation took place on three separate days, each 3 days apart. On days of experimentation, animals were penned as above and the jugular vein of the animal was catheterised. Animals were left to rest for 50 min and then a single ultrasound application applied for 1 min as above. […] A series of electrosonophoresis collections were made concurrently with blood collection from the jugular vein, every 5 min for a further 1 h. Saliva samples were collected on every second blood sample (i.e. every 10 min). At completion of this time, a human shepherd, intermittently for 30 min, then ran the animals around a paddock. During this 30 min, each animal was briefly restrained manually and sampled on all three parameters every 10 min (i.e. three samples repeated three times). At the end of this period, animals were repenned and rested for 10 min, and a further saliva collection was made. Following this saliva collection for a further 1-h period, collection as above, prior to exercise, was repeated. In this manner for each animal, in each session, 27 blood and transdermal samples and 16 saliva samples were collected.

The nature of data set [3]: Concentrations in transdermal exudate collected by different formats from sheep, versus serum. Here is the method: as §1
Ten of these animals were used to develop the transdermal exudate collection technique. These 10 animals were penned as above, and a catheter inserted into the jugular vein using known techniques in the art. A mixture of sodium lauryl sulfate and either SLS-UG or SLS-EG was positioned onto the shaved area on the back of each animal. […] At the end of the hour, the remaining mix on the back was collected. The entire procedure was repeated three times. This mix was subject to assay (see below) for hormones and glucose content.
On the following day, one of the two gel mixes were rubbed on and, after 10 min, ultrasound (20 kHz, 10 W/cm^2, pulsed 5 s on/5 s off using an ITO Physiotherapy and rehabilitation unit, Tokyo 176-8605, Japan) applied for 1 min directly onto the mix. Ten minutes later, the mix was again collected and measured. This was then repeated with 2 min of the ultrasound application, and on a following day, the entire procedure repeated using the alternative gel mix on the shaved patch on the animal. Times greater than 2 min were not attempted due to potential risk of skin damage. Blood samples were collected at the time of ultrasound application and again at the time when the gel mix was also collected. The entire ultrasound procedure was then repeated on subsequent days with the addition of an application of a 9V electric field either side of the ultrasound head (in contact with skin).
On a separate day, in a further repeat of the above procedure; the collecting head (50) was positioned onto the ultrasound device. The ultrasound device was modified to ensure good coupling for use with the collecting head and delivery of needed parameters to the skin. The output of the device was reset to achieve the same energy and pulse delivery to the skin's surface as when the collecting head was not present, and the ultrasound device had been placed directly in contact with the gels (as described above). Three fluid flow rates into the collection chamber of the head were compared: 150, 300 and 600 μl/min. The effluent fluid was then assayed. On a final day, this was then repeated with the immunosensors positioned in the exit line from the chamber, with immunosensor measurement of the hormones made as has been described above.

The nature of data set [4]: Serum, transdermal and saliva samples from human subjects before, during and after exercise. As to conditions: for Saliva: 30-min saliva lag; for Exudate: transdermal. As to the method: as §1, §2
Ten human volunteers (males aged 19-23, body weights 85-103 kg) were seated at 09:30 h. During the experiment, they were held at a room temperature of 20-22° C. An initial 1 min burst of ultrasound, as for the sheep (above), was made on the volar surface of the forearm, following application of SLS-EG mix. Ten minutes later, transdermal (electrosonophoresis) collection began from this site on this forearm, simultaneous to a venepuncture blood collection being made from the other. A saliva collection was then made, followed by a second, third and fourth saliva collection 20, 30 and 40 min after the blood sample. These measurements were repeated three times over 3 h (i.e. a total of three blood and transdermal samples and 12 saliva samples). In between each sampling series, subjects were allowed to walk around, eat lightly and drink water. Following this collection, the five volunteers exercised at moderate intensities, for 40 min (heart rates maintained in the range of 130-160 bpm) on a rowing machine, stopping briefly at 10, 20 and 30 min to give blood, transdermal and saliva samples. The subjects gave another set of samples at 40 min upon completion of rowing, then warmed down lightly with stretching exercises for a further 10 min and gave a further saliva sample at the end of this time. Two more saliva samples were collected at 60 and 70 min after exercise started. At the end of this time, sampling was repeated as above, prior to exercise, for a further 3 h. The entire procedure was repeated twice a week for 3 weeks (a total of six times). The distance rowed (m) represented the total work rate during the exercise.

The nature of data set [5]: Procalcitonin/TNF alpha and IL 6 (measure of bacterial sepsis): serum versus transdermal. The format is in vivo.
The mark [6] stands for this setting: first group of subjects (no condition given).
Setting [7] is: sheep, SLS + 10% E + US 1 min + 9 V.
The mark [8] stands for this setting: sheep, SLS + 10% E + US 1 min + 9 V + Collection Head.
The mark [9] stands for this setting: second group of subjects (no condition given).
Where [10] appears, read: second group: females pregnant and lactating.

In data set [1] (setting [6]), `Cn1c(=O)c2c(ncn2C)n(C)c1=O` [Caffeine] showed a Serum levels of 1 to 5 mg/mL and a Transdermal collection levels of 0.2 to 0.8 mg/mL. Moreover, in data set [1] (second group (loading)), the Serum levels is 4 to 14 mg/mL (loading) and the Transdermal collection levels is 0.3 to 1.5 mg/mL.

In the case of `C[C@]12CC[C@@H]3c4ccc(O)cc4CC[C@H]3[C@@H]1CC[C@@H]2O` [Estradiol, 17-β estradiol], the Serum in data set [2] (10 min Exercise) came out at 1.5 ± 1.1 mg/L; in data set [2] (20 min Exercise), 1.3 ± 1.1 mg/L; in data set [2] (30 min Exercise) it was 1.5 ± 1.3 mg/L; in data set [2] (Postexercise), 2.2 ± 1.1 mg/L; in data set [2] (Preexercise), 1.4 ± 1.2 mg/L. The Saliva in data set [2] (10 min Exercise) stood at 0.038 ± 0.011 mg/L; in data set [2] (20 min Exercise) it was 0.046 ± 0.009 mg/L; in data set [2] (30 min Exercise), 0.03 ± 0.012 mg/L; in data set [2] (Postexercise), 0.052 ± 0.021 mg/L; in data set [2] (Preexercise) it was 0.05 ± 0.03 mg/L; in data set [4] (0 min Exercise) it was 0.76 ± 0.38 ng/L. Also, the Saliva stood at 0.75 ± 0.51 ng/L in data set [4] (10 min Exercise); 0.83 ± 0.39 ng/L in data set [4] (20 min Exercise); 0.85 ± 0.22 ng/L in data set [4] (30 min Exercise); 0.68 ± 0.26 ng/L in data set [4] (40 min Exercise); 0.45 ± 0. ng/l in data set [4] (Postexercise); 0.71 ± 0.25 ng/L in data set [4] (Preexercise). Moreover, the Exudate in data set [2] (10 min Exercise) was 0.14 ± 0.08 mg/L; in data set [2] (20 min Exercise) it was 0.12 ± 0.07 mg/L; in data set [2] (30 min Exercise), 0.14 ± 0.09 mg/L; in data set [2] (Postexercise), 0.20 ± 0.06 mg/L; in data set [2] (Preexercise) it was 0.12 ± 0.06 mg/L; in data set [4] (0 min Exercise), 1.53 ± 0.59 ng/L. Moreover, the Exudate in data set [4] (10 min Exercise) was found to be 1.47 ± 0.94 ng/L; in data set [4] (20 min Exercise), 1.74 ± 0.54 ng/L; in data set [4] (30 min Exercise), 2.14 ± 0.86 ng/L; in data set [4] (40 min Exercise), 1.53 ± 0.51 ng/L; in data set [4] (Postexercise), 1.11 ± 0.55 ng/L; in data set [4] (Preexercise) it was 1.23 ± 0.46 ng/L. Moreover, in data set [3] (in vivo), the “Recovery as % of serum levels” value is 1%.

With “Insulin: endogenous hormone analyte measured in serum and exudate”, the Serum is 2.1e-07 ± 7e-08 mg/L in data set [2] (10 min Exercise); 1.2e-07 ± 5e-08 mg/L in data set [2] (20 min Exercise); 1.9e-07 ± 8e-08 mg/L in data set [2] (Postexercise); 0.18 ± 0.09 ng/mL in data set [3] (sheep, SLS + 10% E); 0.4 ± 0.15 ng/mL in data set [3] (sheep, SLS + 10% E + US 1 min); 0.21 ± 0.08 ng/mL in data set [3] (setting [7]). Moreover, the Serum in data set [3] (setting [8]) is 0.19 ± 0.11 ng/mL; in data set [3] (sheep, SLS + UG) it was 0.2 ± 0.6 ng/mL; in data set [4] (0 min Exercise), 13.1 ± 3.0 μIU/ml; in data set [4] (20 min Exercise), 6.3 ± 3.8 μIU/ml; in data set [4] (30 min Exercise) it was 5.4 ± 4.1 μIU/ml; in data set [4] (Postexercise) it was 14.1 ± 5.5 μIU/ml. In addition, the Exudate in data set [2] (20 min Exercise) was found to be 9e-09 ± 3e-09 mg/L; in data set [2] (30 min Exercise), 8e-09 ± 4e-09 mg/L; in data set [2] (Postexercise), 1.4e-08 ± 8e-09 mg/L; in data set [2] (Preexercise), 2.9e-08 ± 9e-09 mg/L; in data set [3] (sheep, SLS + 10% E + US 1 min), 0.0004 ± 0.002 ng/mL; in data set [3] (setting [7]) it was 0.0064 ± 0.0041 ng/mL. Besides, the Exudate in data set [3] (setting [8]) worked out at 0.013 ± 0.006 ng/mL; in data set [4] (10 min Exercise) it was 0.90 ± 0.28 μIU/ml; in data set [4] (30 min Exercise), 0.46 ± 0.21 μIU/ml; in data set [4] (40 min Exercise) it was 0.57 ± 0.33 μIU/ml; in data set [4] (Postexercise) it was 1.15 ± 0.48 μIU/ml; in data set [4] (Preexercise) it was 1.35 ± 0.90 μIU/ml. The “Recovery as % of serum levels” value in data set [3] (sheep, gel mix with addition of ultrasound application) was 2%.

On to `CC(=O)[C@H]1CC[C@H]2[C@@H]3CCC4=CC(=O)CC[C@]4(C)[C@H]3CC[C@]12C` [Progesterone], for which, in data set [1] (setting [6]), the Serum levels was 1e-06 to 1.2e-05 mg/mL and the Transdermal collection levels fell in the range of 2e-07 to 1.1e-06 mg/mL. For the same molecule, in data set [1] (setting [9]), the Serum levels was 8e-06 to 2.5e-05 mg/mL and the Transdermal collection levels was 5e-07 to 2.8e-06 mg/mL.

Regarding `CCO` [Ethanol, ethanol], the Serum levels in data set [1] (setting [6]) was 0.01 to 0.9 mg/mL; in data set [1] (second group (loading)), 0.4 to 1.4 mg/mL (loading). Moreover, the Transdermal collection levels in data set [1] (setting [6]) was in the range of 0.02 to 0.08 mg/mL; in data set [1] (second group (loading)), 0.05 to 0.11 mg/mL.

Turning to TNF alpha, the “TNF alpha Trandermal” value was in the range of 0.5 to 12 ng/mL in data set [5] (subject number 20) and 0.1 to 0.5 ng/mL in data set [5] (subject number 30). In addition, the Transdermal in data set [5] (subject number 20) lay in the range of 0.03 to 1.4 ng/mL; in data set [5] (subject number 30), 0.005 to 0.01 ng/mL.

IL 6: measure of bacterial sepsis: the Serum was 0.3 to 11.5 ng/mL in data set [5] (subject number 20) and 0.1 to 0.3 ng/mL in data set [5] (subject number 30). The Transdermal in data set [5] (subject number 20) was in the range of 0.04 to 1.2 ng/mL; in data set [5] (subject number 30) it was 0.03 to 0.05 ng/mL.

On to `CN[C@@H](C)[C@@H](O)c1ccccc1` [Pseudoephedrine, reference compound], for which the Serum levels in data set [1] (setting [6]) was 0.001 to 0.008 mg/mL; in data set [1] (setting [10]), 4-25 μg/ml females. The figures for the Transdermal collection levels in data set [1] (setting [6]) and in data set [1] (setting [10]) were 0.0002 to 0.0008 mg/mL and 0.0004 to 0.0021 mg/mL, respectively.

B1: Prolactin: endogenous hormone analyte (protein, UniProt P01236 29-227, looked up)
Prolactin: LPICPGGAARCQVTLRDLFDRAVVLSHYIHNLSSEMFSEFDKRYTHGRGFITKAINSCHTSSLATPEDKEQAQQMNQKDFLSLIVSILRSWNEPLYHLVTEVRGMQEAPEAILSKAVEIEEQTKRLLEGMELIVSQVHPETKENEIYPVWSGLPSLQMADEESRLSAYYNLLHCLRRDSHKIDNYLKLLKCRIIHNNNC
Turning to B1, the Serum levels in data set [1] (setting [6]) is 1e-06 to 8e-06 mg/mL; in data set [1] (setting [10]) it was 4-100 ng/ml females. Also, the Transdermal collection levels in data set [1] (setting [6]) is 2e-08 to 8e-07 mg/mL; in data set [1] (setting [10]), 4e-07 to 1e-05 mg/mL.

These data come from patent US20040162467A1, “Non-invasive transudate extraction” (priority 2001, published 2004).
